Test results reported in ChEMBL document CHEMBL1201862, “PubChem BioAssay data set” (2004).
The source made the active and inactive calls.

Assays:
[1] = molecular target: Photoreceptor-specific nuclear receptor (Homo sapiens, UniProt Q9Y5X4); assay type: functional, cell-based;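 note: CHO-S cells with Gal4-NCOR and VP16-NR2E3 two-hybrid luciferase reporter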
[2] = molecular target: Tyrosine-protein phosphatase non-receptor type 5 (Homo sapiens, UniProt P54829); assay: PTPN5 enzyme inhibition – biochemical, fluorescence intensity, uHTS hits, confirmation (AID 602372); assay type: functional; conditions: read-out: IC50_Mean
[3] = molecular target: T1, Long-chain-fatty-acid--AMP ligase FadD28 (Mycobacterium tuberculosis, UniProt P9WQ59); assay: Fluorescence polarization aasay to screen for inhibitors that compete for the binding of FadD28 to a bisubstrate Measured in Biochemical System Using Plate Reader - 2147-01_Inhibitor_Dose_CherryPick_Activity.; assay type: functional, Mycobacterium tuberculosis H37Rv
T1 sequence (P9WQ59 whole entry): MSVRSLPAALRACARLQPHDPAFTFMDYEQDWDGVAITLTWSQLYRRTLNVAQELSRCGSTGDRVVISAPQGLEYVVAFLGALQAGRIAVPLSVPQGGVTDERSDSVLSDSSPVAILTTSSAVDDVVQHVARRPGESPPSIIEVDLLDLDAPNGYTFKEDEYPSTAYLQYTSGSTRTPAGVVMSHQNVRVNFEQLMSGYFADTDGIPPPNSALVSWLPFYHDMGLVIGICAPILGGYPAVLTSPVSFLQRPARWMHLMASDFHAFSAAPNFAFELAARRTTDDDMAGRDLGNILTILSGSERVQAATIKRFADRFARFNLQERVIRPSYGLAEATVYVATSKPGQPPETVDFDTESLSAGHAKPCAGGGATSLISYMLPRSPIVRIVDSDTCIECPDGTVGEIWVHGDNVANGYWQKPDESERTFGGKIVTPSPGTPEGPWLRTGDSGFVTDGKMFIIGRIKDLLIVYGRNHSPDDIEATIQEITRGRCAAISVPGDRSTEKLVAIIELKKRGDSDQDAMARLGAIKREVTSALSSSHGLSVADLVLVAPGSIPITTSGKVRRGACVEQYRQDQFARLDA

[4] = molecular target: Dual specificity protein phosphatase 3 (Homo sapiens, UniProt P51452); assay: VHR phosphatase inhibition, dose response, selectivity assay for STEP inhibitor project, biochemical (AID 602374); assay type: functional; conditions: read-out: IC50_Mean
[5] = molecular target: T2, Zinc finger protein mex-5 (Caenorhabditis elegans, UniProt Q9XUB2); assay: potency of MEX-5 RNA-binding blockers – biochemical, C. elegans, fluorescence polarization, dose response (AID 1960)
T2 sequence (Q9XUB2 whole entry): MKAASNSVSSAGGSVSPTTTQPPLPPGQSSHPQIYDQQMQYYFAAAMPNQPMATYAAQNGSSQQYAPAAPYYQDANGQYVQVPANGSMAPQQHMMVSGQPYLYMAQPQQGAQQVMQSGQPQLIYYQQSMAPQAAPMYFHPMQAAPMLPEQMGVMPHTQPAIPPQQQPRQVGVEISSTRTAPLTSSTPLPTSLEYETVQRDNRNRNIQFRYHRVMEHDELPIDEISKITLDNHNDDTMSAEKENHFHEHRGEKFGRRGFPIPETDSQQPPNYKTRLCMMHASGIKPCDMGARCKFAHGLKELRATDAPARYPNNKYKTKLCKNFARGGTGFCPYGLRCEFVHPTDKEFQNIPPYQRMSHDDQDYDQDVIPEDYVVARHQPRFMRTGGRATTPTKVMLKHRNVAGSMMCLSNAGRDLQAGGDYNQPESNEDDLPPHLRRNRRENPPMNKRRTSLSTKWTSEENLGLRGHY

Genome polyprotein = Genome polyprotein (dengue virus type 2, UniProt P29990); assay: flavivirus cap methylation enzyme inhibition – biochemical, confirmation dose response, primary screen (AID 588689); assay type: functional
Chain of Genome polyprotein (P29990 2492-3391 limits assumed): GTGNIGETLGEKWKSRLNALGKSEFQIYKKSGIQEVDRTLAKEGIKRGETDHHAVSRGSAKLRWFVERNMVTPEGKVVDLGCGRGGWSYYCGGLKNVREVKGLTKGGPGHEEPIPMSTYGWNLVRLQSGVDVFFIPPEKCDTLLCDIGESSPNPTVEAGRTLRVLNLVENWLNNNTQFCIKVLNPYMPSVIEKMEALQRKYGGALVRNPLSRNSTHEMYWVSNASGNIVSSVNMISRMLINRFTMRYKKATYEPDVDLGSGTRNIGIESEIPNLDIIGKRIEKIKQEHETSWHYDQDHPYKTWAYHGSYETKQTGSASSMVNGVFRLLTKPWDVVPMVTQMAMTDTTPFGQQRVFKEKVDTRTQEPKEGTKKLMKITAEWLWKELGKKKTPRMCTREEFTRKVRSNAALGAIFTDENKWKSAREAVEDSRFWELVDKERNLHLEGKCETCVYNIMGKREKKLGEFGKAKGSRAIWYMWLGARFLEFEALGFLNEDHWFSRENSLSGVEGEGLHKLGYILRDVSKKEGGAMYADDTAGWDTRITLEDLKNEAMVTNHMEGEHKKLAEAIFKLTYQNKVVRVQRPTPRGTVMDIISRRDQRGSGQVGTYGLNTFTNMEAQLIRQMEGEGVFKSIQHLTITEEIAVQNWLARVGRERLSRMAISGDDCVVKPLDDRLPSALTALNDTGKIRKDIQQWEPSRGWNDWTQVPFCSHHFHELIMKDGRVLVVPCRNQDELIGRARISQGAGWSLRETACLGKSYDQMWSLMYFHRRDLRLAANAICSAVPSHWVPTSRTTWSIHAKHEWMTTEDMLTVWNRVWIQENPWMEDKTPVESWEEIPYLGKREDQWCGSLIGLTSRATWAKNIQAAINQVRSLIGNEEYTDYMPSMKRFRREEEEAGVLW

[6] = molecular target: T3, RNA-binding protein pos-1 (Caenorhabditis elegans, UniProt G5EF15); assay: disruptors of C. elegans POS-1 RNA interaction – biochemical, fluorescence polarization, dose response (AID 1964);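 note: purified POS-1 fused to maltose binding protein made in E. coli; potency of compounds blocking POS-1 binding to fluorescent RNA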
T3 sequence (G5EF15 whole entry): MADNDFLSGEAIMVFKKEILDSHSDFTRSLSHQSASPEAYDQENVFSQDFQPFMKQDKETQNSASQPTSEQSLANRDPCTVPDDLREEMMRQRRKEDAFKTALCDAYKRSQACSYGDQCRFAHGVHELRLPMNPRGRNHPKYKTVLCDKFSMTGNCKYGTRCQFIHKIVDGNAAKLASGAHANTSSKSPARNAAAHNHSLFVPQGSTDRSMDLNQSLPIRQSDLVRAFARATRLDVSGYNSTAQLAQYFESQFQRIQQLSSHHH

[7] = molecular target: Tyrosine-protein phosphatase non-receptor type 11 (Homo sapiens, UniProt Q06124); assay: PTPN11 enzyme inhibitors – biochemical, selectivity assay for STEP inhibitor project, dose response (AID 602367); assay type: functional; conditions: read-out: IC50_Mean
Insulin-degrading enzyme [8] = molecular target: T4, Insulin-degrading enzyme (Homo sapiens, UniProt P14735); assay: recombinant IDE activation, cell-free – biochemical, fluorescence polarization, counter-screen for IDE activator project, dose response (AID 588681)
T4 sequence (P14735 whole entry): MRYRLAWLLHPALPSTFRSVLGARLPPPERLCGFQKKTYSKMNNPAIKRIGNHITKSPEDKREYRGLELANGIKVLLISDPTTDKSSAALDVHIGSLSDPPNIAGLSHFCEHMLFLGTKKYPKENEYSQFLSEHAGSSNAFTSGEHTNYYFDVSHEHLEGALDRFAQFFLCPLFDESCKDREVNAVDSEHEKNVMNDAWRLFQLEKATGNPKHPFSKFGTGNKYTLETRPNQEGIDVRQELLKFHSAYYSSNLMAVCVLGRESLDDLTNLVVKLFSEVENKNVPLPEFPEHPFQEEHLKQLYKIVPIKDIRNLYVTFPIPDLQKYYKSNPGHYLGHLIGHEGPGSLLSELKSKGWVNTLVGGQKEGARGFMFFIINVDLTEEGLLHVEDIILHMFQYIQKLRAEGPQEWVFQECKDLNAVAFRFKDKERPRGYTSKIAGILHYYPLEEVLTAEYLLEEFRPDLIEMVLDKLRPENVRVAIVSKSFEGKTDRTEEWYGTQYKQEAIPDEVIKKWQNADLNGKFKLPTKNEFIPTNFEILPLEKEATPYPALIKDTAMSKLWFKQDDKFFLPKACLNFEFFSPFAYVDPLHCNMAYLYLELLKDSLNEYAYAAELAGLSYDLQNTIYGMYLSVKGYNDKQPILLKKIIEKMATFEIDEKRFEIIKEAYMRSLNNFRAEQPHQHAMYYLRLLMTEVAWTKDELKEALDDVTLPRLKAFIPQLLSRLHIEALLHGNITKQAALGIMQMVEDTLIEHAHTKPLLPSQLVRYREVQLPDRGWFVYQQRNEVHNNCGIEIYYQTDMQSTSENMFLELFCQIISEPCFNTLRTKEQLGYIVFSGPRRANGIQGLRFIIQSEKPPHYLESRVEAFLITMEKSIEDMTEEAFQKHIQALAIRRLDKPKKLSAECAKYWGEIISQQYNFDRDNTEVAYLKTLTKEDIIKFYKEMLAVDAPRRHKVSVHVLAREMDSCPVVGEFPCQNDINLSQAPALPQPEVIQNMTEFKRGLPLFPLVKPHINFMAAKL

HEK293 [9] = assay: optical interference in Abeta FP readout, dose response, artefact control for IDE activator project, biochemical, fluorescence polarization (AID 588442); assay type: functional, cell-based; conditions: Homo sapiens
HEK293 [10] = assay: membrane integrity loss in HEK cells – cell-based, fluorescence, cytotoxicity control for IDE activator project, dose response (AID 588440); assay type: functional; conditions: Homo sapiens;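 note: cytotoxicity by LDH release measuring loss of membrane integrity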
Insulin-degrading enzyme [11] = molecular target: T4, Insulin-degrading enzyme; assay: cellular IDE activation of Abeta substrate cleavage – fluorescence polarization, HEK cells, dose response (AID 588439); assay type: functional, cell-based
[12] = blockers of CRF-binding protein–CRF-R2 complex – cell-based, uHTS hits, 384-well, dose response (AID 651639); assay type: functional, Homo sapiens; conditions: read-out: IC50_Mean
[13] = molecular target: T5, Corticotropin-releasing factor receptor 2/Corticotropin-releasing factor-binding protein (Homo sapiens, UniProt P24387+Q13324); assay: Dose Response confirmation of uHTS hits for small molecule antagonists of the CRF-binding protein and CRF-R2 receptor complex.; assay type: functional; conditions: read-out: IC50_Mean
T5 sequence (Q13324 whole entry): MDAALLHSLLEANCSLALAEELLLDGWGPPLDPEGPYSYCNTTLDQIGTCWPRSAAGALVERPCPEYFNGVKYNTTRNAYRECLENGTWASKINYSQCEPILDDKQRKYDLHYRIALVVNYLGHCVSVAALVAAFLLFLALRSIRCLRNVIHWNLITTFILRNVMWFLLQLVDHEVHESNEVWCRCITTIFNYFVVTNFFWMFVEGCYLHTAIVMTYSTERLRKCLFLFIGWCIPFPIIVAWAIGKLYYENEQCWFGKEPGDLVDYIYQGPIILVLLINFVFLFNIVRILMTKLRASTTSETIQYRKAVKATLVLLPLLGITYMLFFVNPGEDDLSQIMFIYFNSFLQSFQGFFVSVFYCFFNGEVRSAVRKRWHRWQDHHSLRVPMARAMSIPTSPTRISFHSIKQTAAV
T5 sequence (P24387 whole entry): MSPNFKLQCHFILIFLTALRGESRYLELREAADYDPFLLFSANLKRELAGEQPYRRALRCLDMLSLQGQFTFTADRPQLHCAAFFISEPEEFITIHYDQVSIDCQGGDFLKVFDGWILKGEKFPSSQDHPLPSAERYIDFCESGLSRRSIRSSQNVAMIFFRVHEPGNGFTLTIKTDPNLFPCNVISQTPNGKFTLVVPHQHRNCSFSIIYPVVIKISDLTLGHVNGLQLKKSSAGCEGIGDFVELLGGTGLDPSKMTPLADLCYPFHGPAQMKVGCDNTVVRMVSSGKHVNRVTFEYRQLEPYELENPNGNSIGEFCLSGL

[14] = molecular target: T5, Corticotropin-releasing factor receptor 2/Corticotropin-releasing factor-binding protein; assay: activators of CRF receptor 2 with binding protein – uHTS hits, confirmation (AID 602473); assay type: functional; conditions: read-out: EC50_Mean
[15] = molecular target: Cyclin-dependent kinase 1 (Homo sapiens, UniProt P06493); assay type: functional;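 note: Kinome-wide panel profiling, with the target listed as panel member CDC2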
[16] = molecular target: Serine/threonine-protein kinase PLK3 (Homo sapiens, UniProt Q9H4B4); assay type: functional
[17] = molecular target: RAC-alpha serine/threonine-protein kinase (Homo sapiens, UniProt P31749); assay type: functional;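 note: AKT1 affinity measured as one member of a kinome-wide kinase profiling panel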
Chain of RAC-alpha serine/threonine-protein kinase (P31749 whole entry): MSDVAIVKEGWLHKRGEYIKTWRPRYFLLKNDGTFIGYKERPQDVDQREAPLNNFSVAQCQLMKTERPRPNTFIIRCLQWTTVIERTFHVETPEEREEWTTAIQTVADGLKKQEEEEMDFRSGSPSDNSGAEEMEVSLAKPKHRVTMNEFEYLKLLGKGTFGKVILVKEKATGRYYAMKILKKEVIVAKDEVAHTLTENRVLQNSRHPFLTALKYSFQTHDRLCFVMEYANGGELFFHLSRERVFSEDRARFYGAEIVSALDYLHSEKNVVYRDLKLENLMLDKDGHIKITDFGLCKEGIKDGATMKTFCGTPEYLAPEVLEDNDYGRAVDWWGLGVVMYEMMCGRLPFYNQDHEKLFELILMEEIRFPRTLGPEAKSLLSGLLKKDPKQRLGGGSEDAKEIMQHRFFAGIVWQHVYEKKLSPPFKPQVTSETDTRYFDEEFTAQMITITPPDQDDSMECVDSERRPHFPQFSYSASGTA

[18] = molecular target: Serine/threonine-protein kinase pim-1 (Homo sapiens, UniProt P11309); assay type: functional
Chain of Serine/threonine-protein kinase pim-1 (P11309 whole entry): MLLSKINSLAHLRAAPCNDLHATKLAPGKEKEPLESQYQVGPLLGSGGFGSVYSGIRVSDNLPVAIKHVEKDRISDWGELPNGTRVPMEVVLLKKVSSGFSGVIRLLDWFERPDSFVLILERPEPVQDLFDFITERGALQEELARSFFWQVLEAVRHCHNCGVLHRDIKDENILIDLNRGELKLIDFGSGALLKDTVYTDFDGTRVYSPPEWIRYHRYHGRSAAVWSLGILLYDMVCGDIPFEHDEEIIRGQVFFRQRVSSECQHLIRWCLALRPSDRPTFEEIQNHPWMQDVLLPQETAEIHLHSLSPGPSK

[19] = molecular target: Protein kinase C delta type (Homo sapiens, UniProt Q05655); assay type: functional
[20] = molecular target: Casein kinase II subunit alpha (Homo sapiens, UniProt P68400); assay type: functional
Chain of Casein kinase II subunit alpha (P68400 whole entry): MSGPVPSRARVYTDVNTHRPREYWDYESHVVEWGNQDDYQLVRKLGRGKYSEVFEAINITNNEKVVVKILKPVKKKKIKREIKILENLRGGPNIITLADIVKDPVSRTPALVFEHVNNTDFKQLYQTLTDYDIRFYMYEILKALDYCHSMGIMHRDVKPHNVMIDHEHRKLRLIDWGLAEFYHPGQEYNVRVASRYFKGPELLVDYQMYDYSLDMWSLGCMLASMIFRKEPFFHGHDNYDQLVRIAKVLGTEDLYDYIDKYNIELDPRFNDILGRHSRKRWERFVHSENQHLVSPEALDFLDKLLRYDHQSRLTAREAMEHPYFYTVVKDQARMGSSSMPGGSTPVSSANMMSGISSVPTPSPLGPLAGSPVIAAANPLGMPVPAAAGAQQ

[21] = molecular target: Cyclin-dependent kinase 2 (Homo sapiens, UniProt P24941); assay type: functional;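 note: CDK2 measured as one member of a broad kinome profiling panel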
[22] = molecular target: 5'-AMP-activated protein kinase catalytic subunit alpha-1 (Homo sapiens, UniProt Q13131); assay type: functional
Chain of 5'-AMP-activated protein kinase catalytic subunit alpha-1 (Q13131 whole entry): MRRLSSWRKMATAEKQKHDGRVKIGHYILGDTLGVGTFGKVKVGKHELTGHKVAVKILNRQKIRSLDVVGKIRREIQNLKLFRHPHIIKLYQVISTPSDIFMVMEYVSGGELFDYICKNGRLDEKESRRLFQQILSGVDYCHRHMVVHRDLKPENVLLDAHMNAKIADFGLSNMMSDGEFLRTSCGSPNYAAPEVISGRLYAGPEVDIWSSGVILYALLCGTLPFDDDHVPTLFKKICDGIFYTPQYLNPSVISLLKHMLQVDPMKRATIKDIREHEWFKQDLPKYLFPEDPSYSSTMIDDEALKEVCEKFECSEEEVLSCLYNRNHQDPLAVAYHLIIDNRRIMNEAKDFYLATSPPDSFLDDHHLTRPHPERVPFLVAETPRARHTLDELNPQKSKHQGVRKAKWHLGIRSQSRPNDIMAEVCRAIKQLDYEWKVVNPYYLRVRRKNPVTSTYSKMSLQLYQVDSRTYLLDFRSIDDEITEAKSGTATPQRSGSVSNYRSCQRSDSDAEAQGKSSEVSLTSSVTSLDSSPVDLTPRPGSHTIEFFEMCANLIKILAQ

[23] = molecular target: Serine/threonine-protein kinase PLK1 (Homo sapiens, UniProt P53350); assay type: functional;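 note: PLK1 measured as one member of a kinome-wide profiling panel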
[24] = molecular target: Serine/threonine-protein kinase Chk2 (Homo sapiens, UniProt O96017); assay type: functional;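 note: CHEK2 entry within a kinome-wide screening panel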
Chain of Serine/threonine-protein kinase Chk2 (O96017 whole entry): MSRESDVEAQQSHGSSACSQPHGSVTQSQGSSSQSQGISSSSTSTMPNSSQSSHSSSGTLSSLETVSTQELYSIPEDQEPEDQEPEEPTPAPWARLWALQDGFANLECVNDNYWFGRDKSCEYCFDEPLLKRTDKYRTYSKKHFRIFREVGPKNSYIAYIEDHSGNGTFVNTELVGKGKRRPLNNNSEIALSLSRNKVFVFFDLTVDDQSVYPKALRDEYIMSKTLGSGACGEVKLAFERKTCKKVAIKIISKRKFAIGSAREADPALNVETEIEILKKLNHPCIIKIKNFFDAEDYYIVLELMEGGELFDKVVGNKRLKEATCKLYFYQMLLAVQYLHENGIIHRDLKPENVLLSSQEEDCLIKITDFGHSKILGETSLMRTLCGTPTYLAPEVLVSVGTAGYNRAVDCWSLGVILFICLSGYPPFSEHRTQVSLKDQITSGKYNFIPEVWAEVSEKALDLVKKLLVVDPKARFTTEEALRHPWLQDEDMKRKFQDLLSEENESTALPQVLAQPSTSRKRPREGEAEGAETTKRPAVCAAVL

[25] = molecular target: Serine/threonine-protein kinase Chk1 (Homo sapiens, UniProt O14757); assay type: functional;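 note: measured as one member of a kinome-wide kinase profiling panel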
[26] = molecular target: Protein kinase C zeta type (Homo sapiens, UniProt Q05513); assay type: functional;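 note: measured as one member of a broad kinase profiling panel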
[27] = molecular target: Protein kinase C gamma type (Homo sapiens, UniProt P05129); assay type: functional
[28] = molecular target: Serine/threonine-protein kinase MRCK alpha (Homo sapiens, UniProt Q5VT25); assay type: functional
[29] = molecular target: RAC-gamma serine/threonine-protein kinase (Homo sapiens, UniProt Q9Y243); assay type: functional
[30] = molecular target: MAP kinase-activated protein kinase 2 (Homo sapiens, UniProt P49137); assay type: functional;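 note: measured as one member of a kinome-wide kinase panel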
Chain of MAP kinase-activated protein kinase 2 (P49137 whole entry): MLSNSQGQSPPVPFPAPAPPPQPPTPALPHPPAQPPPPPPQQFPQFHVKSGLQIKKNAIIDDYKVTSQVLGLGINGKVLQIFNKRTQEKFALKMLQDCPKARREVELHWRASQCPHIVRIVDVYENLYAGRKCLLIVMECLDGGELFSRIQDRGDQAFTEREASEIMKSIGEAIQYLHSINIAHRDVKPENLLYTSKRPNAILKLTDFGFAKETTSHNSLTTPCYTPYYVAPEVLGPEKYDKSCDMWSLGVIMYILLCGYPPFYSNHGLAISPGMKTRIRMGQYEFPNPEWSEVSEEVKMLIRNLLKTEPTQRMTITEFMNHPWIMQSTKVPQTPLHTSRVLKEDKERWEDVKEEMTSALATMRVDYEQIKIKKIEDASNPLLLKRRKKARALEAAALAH

Ephrin type-A receptor 2 = Ephrin type-A receptor 2 (Homo sapiens, UniProt P29317); assay type: functional;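 note: EPHA2 tested as one member of a kinome-wide kinase panel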
[31] = molecular target: T6, ATP-dependent translocase ABCB1 (Homo sapiens, UniProt P08183); assay: P-gp JC-1 efflux blockade concentration-response – Jurkat-DNR cells, flow cytometry, set 2, dose response (AID 504569); assay type: functional; conditions: read-out: EC50_MICROM_;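 note: potency of pump inhibitors that raise cellular JC-1 green fluorescence up to the nicardipine level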
T6 sequence (P08183 whole entry): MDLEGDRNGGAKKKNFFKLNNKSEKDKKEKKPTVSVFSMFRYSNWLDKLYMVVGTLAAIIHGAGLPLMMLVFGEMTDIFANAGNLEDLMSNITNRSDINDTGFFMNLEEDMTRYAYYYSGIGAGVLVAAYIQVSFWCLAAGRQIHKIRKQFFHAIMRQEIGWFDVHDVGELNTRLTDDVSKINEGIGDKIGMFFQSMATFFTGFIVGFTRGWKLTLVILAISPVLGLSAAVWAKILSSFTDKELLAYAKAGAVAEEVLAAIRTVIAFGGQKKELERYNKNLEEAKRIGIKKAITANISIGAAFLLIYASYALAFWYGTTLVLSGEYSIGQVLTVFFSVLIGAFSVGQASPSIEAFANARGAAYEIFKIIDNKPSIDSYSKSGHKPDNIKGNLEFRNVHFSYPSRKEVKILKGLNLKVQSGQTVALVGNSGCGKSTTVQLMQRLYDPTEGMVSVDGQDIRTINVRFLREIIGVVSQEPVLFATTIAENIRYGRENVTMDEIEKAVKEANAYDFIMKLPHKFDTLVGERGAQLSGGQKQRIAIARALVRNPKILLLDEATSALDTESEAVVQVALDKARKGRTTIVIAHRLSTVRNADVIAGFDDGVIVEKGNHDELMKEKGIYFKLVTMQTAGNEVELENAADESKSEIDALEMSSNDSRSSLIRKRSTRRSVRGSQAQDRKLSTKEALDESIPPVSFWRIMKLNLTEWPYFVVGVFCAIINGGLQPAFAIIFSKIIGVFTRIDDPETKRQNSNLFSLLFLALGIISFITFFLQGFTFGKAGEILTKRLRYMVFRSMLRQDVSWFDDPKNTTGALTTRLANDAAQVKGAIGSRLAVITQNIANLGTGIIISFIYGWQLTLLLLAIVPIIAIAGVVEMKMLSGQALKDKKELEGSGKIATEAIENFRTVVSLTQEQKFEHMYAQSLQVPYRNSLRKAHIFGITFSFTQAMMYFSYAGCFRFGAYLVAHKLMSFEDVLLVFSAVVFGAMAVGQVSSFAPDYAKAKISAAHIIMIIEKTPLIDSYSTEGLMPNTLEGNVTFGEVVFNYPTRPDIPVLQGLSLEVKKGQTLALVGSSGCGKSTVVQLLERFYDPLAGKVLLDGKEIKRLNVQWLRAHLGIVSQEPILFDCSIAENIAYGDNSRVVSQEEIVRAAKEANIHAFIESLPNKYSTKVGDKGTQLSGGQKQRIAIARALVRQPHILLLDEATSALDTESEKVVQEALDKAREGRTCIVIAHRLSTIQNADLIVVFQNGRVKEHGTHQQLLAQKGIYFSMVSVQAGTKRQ

[32] = molecular target: T6, ATP-dependent translocase ABCB1; assay: inhibition of BCRP-mediated JC-1 efflux – Ig-MXP3 cells, flow cytometry, set 2, dose response (AID 504566); assay type: functional; conditions: read-out: EC50_MICROM_;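 note: flow cytometry median green fluorescence of retained JC-1 dye; potency of efflux pump inhibition measured as rising substrate retention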

SMILES: Oc1cc(C(F)(F)F)nc(SC/C=C/c2ccccc2)n1
- IC50 [1]: 12.7 µM (inactive)

SMILES: COc1cc(/C=C2/C(=O)NN(c3cccc(C)c3)C2=O)cc([N+](=O)[O-])c1O
- IC50 [2]: 25.5 µM (inactive)
- AC50 [3]: 39.2 µM (active)
- IC50 [4]: 4.11 µM (active)
- EC50 [5]: 89.1 µM (active)
- IC50 (Genome polyprotein): 51.5 µM (active)
- EC50 [6]: > 300 µM (not active)
- IC50 [7]: 5.63 µM (active)

SMILES: c1ccc(C2CC3CC4(CCCC4)N2O3)cc1 (stereo not drawn)
- EC50 (Insulin-degrading enzyme [8]): > 54.7 µM (inactive)
- EC50 (HEK293 [9]): > 55.9 µM (inactive)
- IC50 (HEK293 [10]): > 89.2 µM (inactive)
- EC50 (Insulin-degrading enzyme [11]): > 54.7 µM (inactive)

SMILES: CN(C)CCCN(C(=O)COc1ccc(Cl)cc1)c1nc2ccc(F)cc2s1
- EC50 (Insulin-degrading enzyme [8]): > 54.7 µM (inactive)
- EC50 (HEK293 [9]): > 55.9 µM (inactive)
- IC50 (HEK293 [10]): > 29.7 µM (inactive)
- EC50 (Insulin-degrading enzyme [11]): > 54.7 µM (inactive)

SMILES: N#Cc1c(C(F)(F)F)cc(-c2ccc(Cl)cc2)nc1O
- IC50 [12]: > 20 µM (inactive)
- IC50 [13]: 4.16 µM (active)
- EC50 [14]: > 53 µM (inactive)

SMILES: Cn1ncc2c1CCCC2=O
- Ki [15]: > 20 µM (inactive)
- Ki [16]: 2 µM (active)
- Ki [17]: > 20 µM (inactive)
- Ki [18]: > 25.1 µM (inactive)
- Ki [19]: > 20 µM (inactive)
- Ki [20]: 15.8 µM (active)
- Ki [21]: > 20 µM (inactive)
- Ki [22]: > 25.1 µM (inactive)
- Ki [23]: 10 µM (active)
- Ki [24]: > 25.1 µM (inactive)
- Ki [25]: > 20 µM (inactive)
- Ki [26]: > 20 µM (inactive)
- Ki [27]: > 20 µM (inactive)
- Ki [28]: > 25.1 µM (inactive)
- Ki [29]: > 25.1 µM (inactive)
- Ki [30]: > 20 µM (inactive)
- Ki (Ephrin type-A receptor 2): > 20 µM (inactive)

SMILES: COc1ccc(-c2cc3nc(-c4ccccc4)cc(N4CCN(C(=O)c5ccco5)CC4)n3n2)cc1
- EC50 [31]: 3.35 µM (active)
- EC50 [32]: 1.28 µM (active)
